≈ marks a conversion by molar mass, not a printed value.
Legend:
[1] = Drug metabolism in human liver microsomes; format: ADME, Microsome; settings: read-out: Drug metabolism
NCI-H460 [2] = assay: Antiproliferative activity against human NCI-H460 cells; format: functional, cell-based
A549 = assay: Antiproliferative activity against human A549 cells; format: functional, cell-based
HT-29 = assay: Antiproliferative activity against human HT-29 cells; format: functional, cell-based
[3] = molecular target: Hepatocyte growth factor receptor (Homo sapiens, UniProt P08581); assay: Inhibition of c-MET (unknown origin)
L02 = assay: Antiproliferative activity against human HL7702 cells after 72 hrs by MTT assay; format: functional, cell-based; settings: L02, 72 h
[4] = molecular target: T1, Fibroblast growth factor receptor 1 (Homo sapiens, UniProt P11362); assay: Inhibition of FGFR1 (unknown origin) using ULight-JAK-1 (Tyr1023) peptide as substrate incubated for 90 mins and measured after 1 hr by LANCE Ultra TR-FRET assay
B16-F10 = assay: Antiproliferative activity against mouse B16-F10 cells after 72 hrs by MTT assay; format: functional, cell-based; settings: B16-F10, 72 h
HCT-116 = assay: Antiproliferative activity against human HCT-116 cells after 72 hrs by MTT assay; format: functional, cell-based; settings: HCT-116, 72 h
HeLa 229 = assay: Antiproliferative activity against human HeLa 229 cells after 72 hrs by MTT assay; format: functional, cell-based; settings: HeLa 229, 72 h
NCI-H460 [5] = assay: Antiproliferative activity against human NCI-H460 cells after 72 hrs by MTT assay; format: functional, cell-based; settings: NCI-H460, 72 h
[6] = molecular target: T1, Fibroblast growth factor receptor 1; assay: Inhibition of FGFR1 (unknown origin) using ULight-JAK-1 (Tyr1023) peptide as substrate incubated for 90 mins at 10 uM and measured after 1 hr by LANCE Ultra TR-FRET assay relative to control
Target sequence in this assay (P11362 22-822 limits assumed): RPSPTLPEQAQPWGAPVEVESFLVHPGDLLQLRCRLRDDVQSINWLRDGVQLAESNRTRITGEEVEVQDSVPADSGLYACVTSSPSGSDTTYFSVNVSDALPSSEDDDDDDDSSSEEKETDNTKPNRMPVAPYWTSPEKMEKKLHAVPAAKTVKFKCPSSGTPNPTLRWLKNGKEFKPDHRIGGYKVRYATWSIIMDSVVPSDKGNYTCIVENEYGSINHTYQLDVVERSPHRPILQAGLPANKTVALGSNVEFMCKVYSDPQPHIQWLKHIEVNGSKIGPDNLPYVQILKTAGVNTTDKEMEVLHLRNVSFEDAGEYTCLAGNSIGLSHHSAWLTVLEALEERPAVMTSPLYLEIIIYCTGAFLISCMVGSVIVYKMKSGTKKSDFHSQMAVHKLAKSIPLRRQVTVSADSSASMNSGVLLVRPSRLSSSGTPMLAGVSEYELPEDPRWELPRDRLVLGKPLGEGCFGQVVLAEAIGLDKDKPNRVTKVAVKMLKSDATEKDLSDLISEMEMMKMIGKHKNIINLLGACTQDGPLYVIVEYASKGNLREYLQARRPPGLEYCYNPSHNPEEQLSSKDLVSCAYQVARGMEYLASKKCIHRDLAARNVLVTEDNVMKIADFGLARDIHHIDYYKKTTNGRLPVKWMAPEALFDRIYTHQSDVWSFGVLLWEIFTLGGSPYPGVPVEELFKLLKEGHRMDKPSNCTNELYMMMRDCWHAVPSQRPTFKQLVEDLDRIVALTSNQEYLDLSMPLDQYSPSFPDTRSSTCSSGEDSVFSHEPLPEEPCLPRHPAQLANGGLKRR

[7] = molecular target: T2, Glutamate receptor ionotropic AMPA (Homo sapiens, UniProt P42261+P42262+P42263+P48058); assay: Displacement of […] from AMPA receptor (unknown origin); format: protein-complex assay
[8] = molecular target: T3, Glutamate receptor ionotropic, kainate 1 (Homo sapiens, UniProt P39086); assay: Binding affinity to GluK1 receptor (unknown origin)
T3 sequence (P39086 whole entry, the tested form may be a part): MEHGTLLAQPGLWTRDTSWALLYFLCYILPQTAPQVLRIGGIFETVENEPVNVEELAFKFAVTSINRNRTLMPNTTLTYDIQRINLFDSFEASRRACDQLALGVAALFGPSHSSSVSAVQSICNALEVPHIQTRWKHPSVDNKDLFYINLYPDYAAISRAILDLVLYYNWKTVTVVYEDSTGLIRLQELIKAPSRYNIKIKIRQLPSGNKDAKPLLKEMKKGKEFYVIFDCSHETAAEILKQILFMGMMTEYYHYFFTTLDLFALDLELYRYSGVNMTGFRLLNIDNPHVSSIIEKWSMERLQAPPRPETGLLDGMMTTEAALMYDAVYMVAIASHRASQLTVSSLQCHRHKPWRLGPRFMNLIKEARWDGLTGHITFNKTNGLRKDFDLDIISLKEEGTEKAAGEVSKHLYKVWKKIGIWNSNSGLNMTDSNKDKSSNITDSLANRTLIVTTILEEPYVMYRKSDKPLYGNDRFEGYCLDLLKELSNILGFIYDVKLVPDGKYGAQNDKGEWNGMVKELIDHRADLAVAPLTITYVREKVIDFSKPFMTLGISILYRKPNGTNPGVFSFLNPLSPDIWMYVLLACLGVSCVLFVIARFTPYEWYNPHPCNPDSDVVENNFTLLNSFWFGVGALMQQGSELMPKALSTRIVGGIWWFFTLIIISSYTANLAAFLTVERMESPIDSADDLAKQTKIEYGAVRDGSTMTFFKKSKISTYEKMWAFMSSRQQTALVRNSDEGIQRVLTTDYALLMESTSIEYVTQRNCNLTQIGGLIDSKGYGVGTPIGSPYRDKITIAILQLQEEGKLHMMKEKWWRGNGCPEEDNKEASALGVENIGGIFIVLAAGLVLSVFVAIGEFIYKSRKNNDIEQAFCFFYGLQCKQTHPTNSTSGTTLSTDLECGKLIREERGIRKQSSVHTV

[9] = molecular target: T3, Glutamate receptor ionotropic, kainate 1; assay: Binding affinity to GluK1 ligand binding domain (unknown origin)
[10] = molecular target: Glutamate receptor ionotropic, kainate 2 (Homo sapiens, UniProt Q13002); assay: Binding affinity to GluK2 receptor (unknown origin)
[11] = molecular target: T2, Glutamate receptor ionotropic AMPA; assay: Displacement of [3H]AMPA from AMPA receptor (unknown origin); format: protein-complex assay
[12] = molecular target: T2, Glutamate receptor ionotropic AMPA; assay: Displacement of [3H]kainic acid from AMPA receptor (unknown origin); format: protein-complex assay
Glutamate receptor 2 = Glutamate receptor 2 (Homo sapiens, UniProt P42262); assay: Binding affinity to GluA2 receptor (unknown origin)
Pichia kudriavzevii = assay: Antifungal activity against Candida krusei; format: functional
Candida parapsilosis = assay: Antifungal activity against Candida parapsilosis; format: functional; settings: Lodderomyces parapsilosis
Candida tropicalis = assay: Antifungal activity against Candida tropicalis; format: functional
[13] = system: Mycobacterium tuberculosis; assay: Antimycobacterial activity against Mycobacterium tuberculosis at […]; format: functional; settings: dose 12.5 µg/ml
Candida [14] = assay: Antifungal activity against Candida species isolate 2; format: functional
Candida [15] = assay: Antifungal activity against Candida species isolate 3; format: functional
Candida albicans = assay: Antifungal activity against Candida albicans; format: functional
Candida [16] = assay: Antifungal activity against Candida species isolate 1; format: functional
Escherichia coli = assay: Antibacterial activity against Escherichia coli; format: functional
Nakaseomyces glabratus = assay: Antifungal activity against Candida glabrata; format: functional
[17] = molecular target: 72 kDa type IV collagenase (Homo sapiens, UniProt P08253); assay: Inhibition of MMP-2 (unknown origin) using succinylated gelatin as substrate incubated for 30 mins and measured by gelatin zymography method
[18] = molecular target: Amine oxidase [flavin-containing] A (Homo sapiens, UniProt P21397); assay: Inhibition of MAO-A (unknown origin)
Amine oxidase [flavin-containing] A, sequence (P21397 whole entry): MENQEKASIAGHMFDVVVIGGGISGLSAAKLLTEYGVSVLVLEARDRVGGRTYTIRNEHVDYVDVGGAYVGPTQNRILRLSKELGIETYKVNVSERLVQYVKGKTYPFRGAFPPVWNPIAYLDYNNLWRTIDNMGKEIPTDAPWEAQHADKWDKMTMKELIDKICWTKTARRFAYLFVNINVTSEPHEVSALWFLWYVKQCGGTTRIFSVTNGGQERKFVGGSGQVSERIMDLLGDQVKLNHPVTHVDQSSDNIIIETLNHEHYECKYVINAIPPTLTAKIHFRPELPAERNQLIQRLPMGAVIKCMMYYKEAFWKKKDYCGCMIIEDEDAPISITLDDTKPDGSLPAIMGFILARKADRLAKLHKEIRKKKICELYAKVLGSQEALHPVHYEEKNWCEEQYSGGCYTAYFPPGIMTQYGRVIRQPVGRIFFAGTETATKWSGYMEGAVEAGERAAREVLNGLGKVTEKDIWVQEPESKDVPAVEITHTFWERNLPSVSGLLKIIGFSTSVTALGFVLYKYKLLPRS

[19] = molecular target: Amine oxidase [flavin-containing] B (Homo sapiens, UniProt P27338); assay: Inhibition of MAO-B (unknown origin)
Rattus norvegicus [20] = assay: Antiobesity activity in fasted Sprague-Dawley rat assessed as inhibition of food intake for more than 2 hrs when administered orally; format: functional; settings: route po
Rattus norvegicus [21] = assay: Antiobesity activity in fasted Sprague-Dawley rat assessed as inhibition of food intake for more than 2 hrs when administered intraperitoneally; format: functional; settings: route ip
[22] = Partial agonist activity at GABAA/benzodiazepine receptor complex (unknown origin) measured by [35S]TBPS based functional assay; set-up: species or system Homo sapiens
[23] = Displacement of [3H]flunitrazepam from GABAA/benzodiazepine receptor complex (unknown origin); set-up: species or system Homo sapiens
[24] = Binding affinity to estrogen receptor (unknown origin); set-up: species or system Homo sapiens
Homo sapiens [25] = species: Homo sapiens; assay: Binding affinity to Creatine kinase (CK) (unknown origin) relative to control
[26] = Metabolic stability in rat liver microsomes assessed as half-life; format: ADME, Microsome
[27] = Aqueous solubility of the compound at pH 7.4; format: physicochemical; settings: buffer
Homo sapiens [28] = species: Homo sapiens; assay: Binding affinity to estrogen receptor (unknown origin) relative to control
[29] = Binding affinity to Creatine kinase (CK) (unknown origin); set-up: species or system Homo sapiens
Trichomonas vaginalis [30] = assay: Antiprotozoal activity against Trichomonas vaginalis at 10 ug/ml measured at 48 hrs; format: functional; settings: dose 10 µg/ml
Toxoplasma gondii = assay: Anti-tachyzoite activity against Toxoplasma gondii at 100 uM; format: functional, type III
[31] = Metabolic stability in human liver microsomes assessed as compound remaining after 1 hr; format: ADME, Microsome; settings: read-out: Stability
Staphylococcus aureus [32] = assay: Antibacterial activity against methicillin-resistant Staphylococcus aureus; format: functional
[33] = molecular target: Voltage-gated inwardly rectifying potassium channel KCNH2 (Homo sapiens, UniProt Q12809); assay: Inhibition of hERG; format: toxicity
Voltage-gated inwardly rectifying potassium channel KCNH2, sequence (Q12809 whole entry): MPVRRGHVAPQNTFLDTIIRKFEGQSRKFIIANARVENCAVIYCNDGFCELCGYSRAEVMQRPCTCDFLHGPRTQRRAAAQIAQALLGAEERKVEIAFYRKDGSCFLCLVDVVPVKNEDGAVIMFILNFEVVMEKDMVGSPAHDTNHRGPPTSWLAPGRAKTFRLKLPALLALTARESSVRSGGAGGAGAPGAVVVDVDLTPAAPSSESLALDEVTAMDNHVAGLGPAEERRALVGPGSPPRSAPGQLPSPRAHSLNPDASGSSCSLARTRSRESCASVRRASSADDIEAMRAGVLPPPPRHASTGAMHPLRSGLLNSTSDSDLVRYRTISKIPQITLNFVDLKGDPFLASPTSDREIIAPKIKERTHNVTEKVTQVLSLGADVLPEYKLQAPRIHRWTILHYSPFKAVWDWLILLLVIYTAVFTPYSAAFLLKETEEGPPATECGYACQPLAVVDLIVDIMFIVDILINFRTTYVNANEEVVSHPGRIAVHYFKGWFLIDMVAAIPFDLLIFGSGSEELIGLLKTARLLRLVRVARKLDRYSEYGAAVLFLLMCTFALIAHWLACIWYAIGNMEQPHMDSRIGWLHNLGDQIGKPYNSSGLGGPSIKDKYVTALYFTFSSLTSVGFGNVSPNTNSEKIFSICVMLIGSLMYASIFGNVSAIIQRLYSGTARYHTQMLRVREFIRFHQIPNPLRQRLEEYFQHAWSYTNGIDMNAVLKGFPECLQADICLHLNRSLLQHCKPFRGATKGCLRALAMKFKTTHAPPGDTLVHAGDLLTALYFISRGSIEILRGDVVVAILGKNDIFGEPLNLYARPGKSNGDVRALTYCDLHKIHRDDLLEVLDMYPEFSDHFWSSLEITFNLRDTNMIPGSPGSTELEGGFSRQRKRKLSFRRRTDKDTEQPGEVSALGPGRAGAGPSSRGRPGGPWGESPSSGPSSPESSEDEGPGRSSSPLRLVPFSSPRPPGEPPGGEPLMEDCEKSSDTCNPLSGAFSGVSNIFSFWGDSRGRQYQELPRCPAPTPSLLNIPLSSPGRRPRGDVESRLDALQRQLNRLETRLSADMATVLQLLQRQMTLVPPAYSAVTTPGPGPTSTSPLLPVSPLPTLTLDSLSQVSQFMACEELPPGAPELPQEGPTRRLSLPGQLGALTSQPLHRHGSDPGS

Staphylococcus aureus [34] = assay: Antibacterial activity against methicillin-sensitive Staphylococcus aureus; format: functional
Topoisomerase IV = Topoisomerase IV (Staphylococcus aureus, UniProt P0C1S7+P0C1U9); assay: Inhibition of Staphylococcus aureus topoisomerase 4; format: protein-complex assay
Topoisomerase IV, sequence (P0C1U9 whole entry): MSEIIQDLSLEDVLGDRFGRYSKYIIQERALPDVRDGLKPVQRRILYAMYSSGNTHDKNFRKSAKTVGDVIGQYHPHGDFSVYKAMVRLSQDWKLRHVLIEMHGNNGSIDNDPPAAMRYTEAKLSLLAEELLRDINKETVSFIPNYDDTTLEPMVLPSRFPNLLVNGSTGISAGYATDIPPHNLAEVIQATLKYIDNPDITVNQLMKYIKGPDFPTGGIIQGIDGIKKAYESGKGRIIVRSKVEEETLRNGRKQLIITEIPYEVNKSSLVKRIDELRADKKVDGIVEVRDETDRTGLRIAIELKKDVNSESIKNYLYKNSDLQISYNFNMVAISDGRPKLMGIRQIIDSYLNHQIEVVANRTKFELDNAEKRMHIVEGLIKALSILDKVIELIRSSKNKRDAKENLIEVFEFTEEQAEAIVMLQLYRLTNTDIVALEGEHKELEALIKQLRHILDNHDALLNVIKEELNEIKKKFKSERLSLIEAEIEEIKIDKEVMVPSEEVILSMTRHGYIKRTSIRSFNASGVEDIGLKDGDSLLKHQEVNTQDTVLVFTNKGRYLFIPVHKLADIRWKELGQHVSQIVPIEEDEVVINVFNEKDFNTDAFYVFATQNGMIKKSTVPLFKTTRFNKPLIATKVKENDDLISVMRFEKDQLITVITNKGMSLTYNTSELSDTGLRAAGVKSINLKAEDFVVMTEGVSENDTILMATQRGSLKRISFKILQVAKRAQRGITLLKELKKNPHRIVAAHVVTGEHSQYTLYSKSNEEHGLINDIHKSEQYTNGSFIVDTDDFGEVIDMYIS
Topoisomerase IV, sequence (P0C1S7 whole entry): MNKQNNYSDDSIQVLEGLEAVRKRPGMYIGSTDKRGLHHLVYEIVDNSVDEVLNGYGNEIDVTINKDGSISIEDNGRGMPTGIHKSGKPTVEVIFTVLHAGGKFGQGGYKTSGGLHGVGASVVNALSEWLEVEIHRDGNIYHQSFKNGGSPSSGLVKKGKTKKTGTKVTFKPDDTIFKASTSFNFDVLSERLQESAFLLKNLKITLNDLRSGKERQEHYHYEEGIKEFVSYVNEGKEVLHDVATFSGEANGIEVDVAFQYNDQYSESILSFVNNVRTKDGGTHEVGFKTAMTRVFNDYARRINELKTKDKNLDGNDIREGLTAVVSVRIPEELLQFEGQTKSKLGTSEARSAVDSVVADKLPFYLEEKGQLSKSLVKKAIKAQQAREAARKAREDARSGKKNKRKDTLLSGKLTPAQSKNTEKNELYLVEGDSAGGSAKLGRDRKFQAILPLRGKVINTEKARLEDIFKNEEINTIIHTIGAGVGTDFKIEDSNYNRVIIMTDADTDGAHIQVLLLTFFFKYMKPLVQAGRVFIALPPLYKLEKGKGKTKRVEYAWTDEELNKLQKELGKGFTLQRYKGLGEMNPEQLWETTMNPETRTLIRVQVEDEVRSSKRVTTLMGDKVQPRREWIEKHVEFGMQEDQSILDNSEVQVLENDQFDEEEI

[35] = molecular target: Bromodomain-containing protein 4 (Homo sapiens, UniProt O60885); assay: Inhibition of BRD4 (unknown origin) using histone-H4 as substrate incubated for 15 mins and measured after 1 hr by AlphaScreen assay
MV4-11 = assay: Antiproliferative activity against human MV4-11 cells; format: functional, cell-based
[36] = Antiproliferative activity against human U-87 MG cells; format: functional, cell-based, U-87MG ATCC
Trichomonas vaginalis [37] = assay: Antiprotozoal activity against Trichomonas vaginalis; format: functional, organism-based

O=c1c(-c2cccc([N+](=O)[O-])c2)nc2ccccc2n1Cc1ccccc1
metabolised [1]: < 40%

O=C(Nc1ccc(Oc2ccnc(NC(=O)C3CC3)c2)cc1)c1nc2ccccc2n(-c2ccc(F)cc2)c1=O
IC50 (NCI-H460 [2]): 940 nM | IC50 (A549): 1570 nM | IC50 (HT-29): 650 nM | IC50 [3]: 1.91 nM

O=c1[nH]c2ccccc2nc1/C=C/c1ccccn1
IC50 (L02): > 100000 nM | IC50 [4]: 15300 nM | IC50 (B16-F10): 58 nM | IC50 (HCT-116): 270 nM | IC50 (HeLa 229): 2890 nM | IC50 (NCI-H460 [5]): 460 nM | inhibition [6]: 79.3%

N[C@@H](CCc1ccc2[nH]c(=O)c(=O)[nH]c2c1)C(=O)O
Ki [7]: 78000 nM | Ki [8]: 16100 nM | Ki [9]: 37100 nM | Ki [10]: 9520 nM | IC50 [11]: 26000 nM | IC50 [12]: 126000 nM | Ki (Glutamate receptor 2): 21300 nM

O=c1[nH]c2cc([N+](=O)[O-])ccc2nc1CBr
MIC (Pichia kudriavzevii): 62.5 µg/mL (≈ 220 µM) | MIC (Candida parapsilosis): 15.6 µg/mL (≈ 54.9 µM) | MIC (Candida tropicalis): 31.2 µg/mL (≈ 110 µM) | Activity [13]: 15% | MIC (Candida [14]): 31.2 µg/mL (≈ 110 µM) | MIC (Candida [15]): 15.6 µg/mL (≈ 54.9 µM) | MIC (Candida albicans): 8 µg/mL (≈ 28.2 µM) | MIC (Candida [16]): 15.6 µg/mL (≈ 54.9 µM) | MIC (Escherichia coli): 125 µg/mL (≈ 440 µM) | MIC (Nakaseomyces glabratus): 15.6 µg/mL (≈ 54.9 µM)

Cc1ccc(NC(=O)C(Cc2ccccc2)NC(=O)Cn2c(=O)c(C)nc3ccccc32)cc1 (stereo not drawn)
IC50 [17]: 10500 nM

C/C(=N\NC(=O)Cn1c(=O)c(Cc2ccccc2)nc2ccccc21)c1ccc(O)cc1
IC50 [18]: 1.6 nM | IC50 [19]: 980000 nM

O=C1Nc2cc(Cl)c(Cl)cc2N2CCNC[C@H]12
ED50 (Rattus norvegicus [20]): 10 mg/kg | ED50 (Rattus norvegicus [21]): 2 mg/kg

CC(C)n1c(=O)c2c(-c3ccc(F)cc3)ncn2c2cccc(Cl)c21
EC50 [22]: 2.04 nM | Ki [23]: 14.6 nM

CC[C@H]1C(=O)N(C)c2ccc(F)cc2N1C(=O)c1ccc(O)cc1O
IC50 [24]: 20 nM | Activity (Homo sapiens [25]): 36% | half-life [26]: > 30 min | solubility [27]: > 100 µg/mL | Activity (Homo sapiens [28]): 96% | EC50 [29]: 169 nM

O=C1CN(CCCCCN2CCCCCC2)c2ccc([N+](=O)[O-])cc2N1
Activity (Trichomonas vaginalis [30]): 2.35% | Activity (Toxoplasma gondii): 88%

COc1ccc(N2CCN(CCCNC(=O)Cn3c(=O)c4cccn4c4c(C)ccnc43)CC2)cc1
remaining at 1 h [31]: 22%

COc1ccc2nccc(CC[C@H]3OC[C@H](NC(=O)c4ccc5c(c4)OCCO5)CO3)c2c1
MIC (Staphylococcus aureus [32]): 1 µg/mL (≈ 2.22 µM) | IC50 [33]: > 100000 nM | MIC (Staphylococcus aureus [34]): 1 µg/mL (≈ 2.22 µM) | IC50 (Topoisomerase IV): > 200000 nM

CCC1C(=O)Nc2ccc(-c3c(C)noc3C)cc2N1Cc1ccccc1 (stereo not drawn)
IC50 [35]: 73 nM | IC50 (MV4-11): 253 nM

COc1cc2c(Oc3ccc(NC(=O)c4nc5ccccc5n(C5CCCCC5)c4=O)cc3F)ccnc2cc1OCCCN1CCOCC1
IC50 [36]: 810 nM

CCOC(=O)C(C)c1nc2ccc(C(F)(F)F)cc2[nH]c1=O (stereo not drawn)
MIC (Trichomonas vaginalis [37]): 100 µg/mL (≈ 318 µM)

— ChEMBL document CHEMBL5113380, “Functionalized quinoxalinones as privileged structures with broad-ranging pharmacological activities” (Eur J Med Chem, 2022)
